# Assay results as given in PubChem BioAssay AID179 (DTP/NCI, 2004).
# Where “and” joins values, the source holds several entries; their conditions need not be identical. Equal entries are not always repeated. Calls of active or inactive are those of the source.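 How the source made its calls: active means compounds giving half or more protection of infected cells from virus-caused growth loss, again on retest; inactive means the rest.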 Where a SMILES comes first, the peptide text is derived from it. The star is where a group is joined. Cbz = O=C(OCc1ccccc1)*
# Test system: CEM cells HIV-1 protection, formazan growth assay
# Assay: NCI AIDS Antiviral Assay
# Details: for IC50: measured here: growth of uninfected CEM cells
# In short: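 Human CEM cells, uninfected and HIV-1-infected, exposed to five drug concentrations; growth measured by soluble formazan assay and scored as percent protection from infection, with protecting compounds retested.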
Compound,EC50 [µM],IC50,outcome
Cc1cc2c(c(C=Nc3ccc(N(C)C)cc3)c1)OC1(C=C2)Oc2ccccc2C(=O)N1C (configuration not stated),> 41.7,13.2 µM,
CC1=[N+]([O-])c2ccccc2C(=O)C1=O,,,inactive
Nc1nc(=S)c2ncn(C3CC(O)C(CO)O3)c2[nH]1 (configuration not stated),> 891,0.457 µM and 2.09 µM,
COC1CCC(=O)N1CN(C(C)=O)c1ccc(C)cc1 (configuration not stated),,,inactive
Cc1ccc(Nc2[nH]c(=O)[nH]c(=O)c2N=O)cc1,> 200,> 200 µM,
Cc1ccc(S(=O)(=O)NCCCSCCO)cc1,> 871,5.75 µM,
COc1cc(OC)c(OC)cc1/C=C/c1cc[n+](C)c2ccccc12,> 200,7.59 µM,
N#CNC(=NCc1ccccc1)NCCc1c[nH]c2ccccc12,145,162 µM,
CC(=O)Oc1ccc2c(c1)O/C(=C\c1ccc(N(C)C)cc1)C2=O,> 200,28.8 µM,
CCn1cnc2[nH]cc(C#N)c2c1=O,> 200,> 200 µM,
C[C@H]1C(=O)c2c(cc(O)c(C3OC(CO)C(O)C(O)C3O)c2O)OC1c1ccc(O)c(O)c1 (some centres not stated),,,inactive
O=S(=O)(c1cc(Cl)ccc1Cl)N1CCN(c2ccc(Cl)c(Cl)c2)CC1,> 200,> 200 µM,
CCOC(C[C@H](O[Si](C)(C)C(C)(C)C)[C@H]1COC(=S)S1)OCC,> 200,155 µM,
CCCCCOC(=S)S,> 200,> 200 µM,
C/C(=N\NC(N)=S)c1ccc(Oc2ccccc2)cc1,,,inactive
COC(=O)c1ccc(CO/N=C(\c2ccccc2)c2cccnc2)cc1,> 200,47.9 µM,
CCOc1nnc(C)o1,> 1510,> 1510 µM,
CN(C)CCNc1ccc2c(=O)n(CCN(C)C)c(=O)n3c4ccc(N)cc4c(=O)c1c23,> 200,0.0631 µM,
CC[n+]1c(-c2ccccc2)c2cc(N)ccc2c2ccc(N)cc21,> 708,0.794 µM and 0.525 µM,
CCO[C@H]1N(C2CC(N=[N+]=[N-])C(CO)O2)C(=O)NC(=O)[C@]1(C)Cl (some centres not stated),> 200,> 200 µM,
COc1ccc2c(c1O)C13CCN(C)C(C2)C12C=CC(=O)C3c1c(O)ccc(O)c12 (configuration not stated),> 200,2.95 µM,
CC1(C)C2CCC1(CS(=O)(=O)O)C(=O)C2 (configuration not stated),> 200,> 200 µM,
CCCCCCCCCCC/C=C(/C(=O)CCCO[Si](C)(C)C(C)(C)C)C(=O)OC,> 200,> 200 µM,
CCC(CCCCC1CC[C@H]2CC(=O)C[C@@H]12)OC (some centres not stated),> 200,107 µM,

Compound,EC50 [µM],IC50,outcome
OC(C/C=N/N=C/CC(O)(C(F)(F)Cl)C(F)(F)Cl)(C(F)(F)Cl)C(F)(F)Cl,> 200,89.1 µM,
N=C(/C=C/c1ccc(-c2cn3cc(/C=C/C(=N)N4CCOCC4)ccc3n2)cc1)N1CCOCC1,162,186 µM,
CCOC(=O)CCC(NC(=O)OCc1ccccc1)C(=O)NC(CCC(=O)OCC)C(=O)OCC (configuration not stated) (Cbz-Glu(OEt)-Glu(OEt)-OEt; configuration not given here),> 200,> 200 µM,
O=C1c2cccc3cccc(c23)C(=O)N1CCN1C(=O)c2cccc3cccc(c23)C1=O,> 200,30.2 µM,
N#CN/C(N)=N/S(=O)(=O)c1ccc([N+](=O)[O-])cc1,> 933,257 µM,
COc1ccc(NC(=O)CC/C(CC(=O)C(C)(C)C)=N\NC(=O)C(=O)NN)cc1,,,inactive
O=C1c2cccc3c2C(=O)c2c(cccc21)OCCOCCOCCOCCO3,,,inactive
Nc1nn2cc3c(nc2c1N=Nc1ccccc1)CCCC3,> 200,4.47 µM,
COc1cc2c(oc(=O)c3cc4ccoc4c(OC)c32)c2cccc(O)c12,> 1.45,> 1.45 µM,
CN1CCc2c([nH]c3ccccc23)C1,> 200,> 200 µM,
CC(=O)C1C(=O)C(=O)N(c2ccc(Cl)c(Cl)c2)C1=O (configuration not stated),> 200,129 µM,
NCCCC1CCCCNC1 (configuration not stated),,,inactive
Cc1ccc2c(c1)CN(C(=O)CCC(=O)OCc1ccccc1)c1ccc(C)cc1CN2C(=O)CCC(=O)OCc1ccccc1,,,inactive
CCCCOC(=O)C1CN2C=CC=NC2=NC1(C(F)(F)F)C(F)(F)F (configuration not stated),,,inactive
CC1CCC2(C)C(CC=C(C=O)C2(O)C=O)C12CO2 (configuration not stated),,,inactive
COc1c(C)c(O)c2c(=O)cc(-c3ccccc3)oc2c1C,> 63.1,> 63.1 µM,
O=C(c1ccccc1)n1cc(-c2ccccc2)c2c(=O)[nH]cnc21,> 200,> 100 µM,
CC1(O)C=CC2CCC1C2O (configuration not stated),> 1620,> 1620 µM,
O=S1(=O)OCCCCO1,> 1620,> 1620 µM,
CCCCCCCCCCNC(=S)OCCCC,,,inactive
COC(=O)C1=CC(=O)OC1(OO)c1ccc(Br)cc1 (configuration not stated),> 200,38.9 µM,
CCOC(=O)c1nn(Cc2ccccc2)c(=S)[nH]c1=O,,123 µM,inactive
Cc1cc(SSc2cc(C)c3ccccc3n2)nc2ccccc12,> 200,110 µM,
CCOC(=O)c1sc2nc(SC)nc3c2c1NCN3C,> 200,> 200 µM,

Compound,EC50 [µM],IC50,outcome
O=C(CCCN1CCc2[nH]c3ccccc3c2C1)c1ccc(F)cc1,> 200,33.9 µM,
Cc1csc2nc(-c3ccco3)nn12,> 200,> 200 µM,
CCOC(=O)Nc1nc2c([N+](=O)[O-])c(Br)n(C)c2s1,,,inactive
Cc1cc([N+](=O)[O-])c(=O)[nH]c1C,> 1480,832 µM,
CC1C2c3ccccc3C(c3ccccc32)C1CN1C(CCO)COC1c1ccccc1 (configuration not stated),> 200,38 µM,
O=S(O)CCCCSSCC(O)C(O)CSSCCCCS(=O)O (configuration not stated),,,inactive
CCN(CC)CC(=N)N(CC)c1ccccc1,> 417,195 µM,
NNC(=O)c1c/c(=N\NC(=O)CC(=O)Nc2ccccc2Cl)c2ccccc2o1,> 1.74,> 1.74 µM,
CCOC(=O)c1c(N)n(-c2ccccc2)c(=O)n(-c2ccccc2)c1=O,> 708,372 µM,
CCOC(=O)/C(C#N)=C\Sc1ccccc1,,,inactive
Cc1csc(CP(=O)(OC(C)C)OC(C)C)n1,> 200,> 200 µM,
CC(=O)N(C(=O)CC(=O)NNCc1ccccc1Cl)c1ccc(Cl)cc1,> 200,> 200 µM,
Fc1cccc(C=NC23CC4CC(CC(C4)C2)C3)c1,> 52.5,> 52.5 µM,
CCOC(C)=Nc1cc(OC)cc2c1NC(=O)CCS2,> 200,> 200 µM,
CCc1oc2ccccc2c1C(=O)c1ccc(O)cc1,> 324,53.7 µM,
CC(=O)OCC1OC(n2c(=S)[nH]c(-c3ccccc3)c(C#N)c2=O)C(OC(C)=O)C(OC(C)=O)C1OC(C)=O (configuration not stated),> 200,170 µM,
Cn1cccc(C(=O)c2ccccc2)c1=O,,,inactive
NS(=O)(=O)c1nnc(NSc2ccc([N+](=O)[O-])cc2)s1,> 200,46.8 µM,
COc1ccc(OC)c(C(Cc2ccnc3ccccc23)Cc2ccnc3ccccc23)c1,> 200,26.3 µM,
NNC1=Nc2ccccc2N=C2CCSCC21 (configuration not stated),> 200,178 µM,
CS(=O)(=O)c1nc2nc[nH]c2c(=O)[nH]1,> 200,> 200 µM,
O=C1c2cccc3cc([N+](=O)[O-])cc(c23)C(=O)N1Nc1ccc([N+](=O)[O-])cc1[N+](=O)[O-],> 200,9.77 µM,
C/C(=N\Nc1ccc([N+](=O)[O-])cc1[N+](=O)[O-])c1ccc2ccccc2n1,182,> 200 µM,
OCCN1CCOC(O)(c2cccc(C(F)(F)F)c2)C1 (configuration not stated),> 200,115 µM,

Compound,EC50 [µM],IC50,outcome
O=C1CCCC/C1=C/c1ccc(Cl)cc1,,,inactive
Cc1cccc(C2NC(=S)N3C(c4cccc(C)c4)NC(=S)N23)c1 (configuration not stated),,,inactive
O=C(COc1ccc(Cl)cc1)N1N=C(c2ccc([N+](=O)[O-])o2)CC1(O)c1ccccc1 (configuration not stated),> 16.2,2.88 µM,
Nc1nc(=S)c2c(ncn2CCO)[nH]1,> 324,126 µM,
O=[N+]([O-])c1ccccc1C=NC12CC3CC(CC(C3)C1)C2,> 115,> 115 µM,
CC(=O)NC(C(=O)O)(C(=O)O)C(C)CC(=O)O (configuration not stated),> 200,> 200 µM,
Cn1cnc([N+](=O)[O-])c1Sc1nccn1-c1ccccc1,> 832,9.33 µM,
CCCCCCC(c1ccc(O)c(C(=O)O)c1)c1ccc(O)c(C(=O)O)c1,> 1000,166 µM,
N#CC1=C(c2ccccc2)OC2(N)OC(c3ccccc3)=C(C#N)C12C#N (configuration not stated),,,inactive
CN1C(=O)N(C)[C@@H]2CC(=O)c3ccc(C(F)(F)F)cc3N2C1=O,> 288,> 288 µM,
CC(=O)Nc1ccc(NC(=O)c2cccc3c(Nc4ccc(S(=O)(=O)Nc5cc(C)on5)cc4)c4ccccc4nc23)cc1,> 200,23.4 µM,
Cc1cc(C)c(O)c(CN(Cc2ccccn2)Cc2ccccn2)c1,,,inactive
CN1CN(C(=O)N2CN(C)C(=O)N(C)C2)CN(C)C1=O,> 158,> 158 µM,
COC(=O)c1ccc(CSc2ccc(Cl)cc2)cc1,> 4.9,3.55 µM,
CC[C@@H]1OC2(C)CC(S(=O)(=O)c3ccccc3)CC1O2 (some centres not stated),26.3,170 µM,
NNC(=S)N/N=C(/C(=O)Nc1cc(Cl)ccc1Cl)C1C(=O)Nc2ccccc2S1=O (configuration not stated),> 513,257 µM,
Cc1cc(S(=O)(=O)Nc2nnc3c(Cl)cc(C(F)(F)F)cn23)c(S)cc1Cl,70.8,380 µM,
CCN(CC)CC(=O)Nc1ccc2c(c1)C(=O)c1ccc(NC(=O)CN(CC)CC)cc1C2=O,> 100,2.09 µM,
CC1=NN(C(=O)Cc2ccccc2)C(=O)/C1=C\c1ccccc1O,> 22.4,> 22.4 µM,
C#CCN(N=O)C(=O)NC(CCCCNC(=O)OCc1ccccc1)C(=O)OCc1ccccc1 (configuration not stated),> 10.7,> 10.7 µM,
C=CCn1c(-c2ccc([N+](=O)[O-])cc2)csc1=N,> 200,26.3 µM,
